Reference: patent US7235715B2, “Virus-resistant transgenic plants expressing L3” (priority 1998, dated 2007)

Legend:
[1] = tested on: programmed −1 ribosomal frameshifting; assay: Programmed −1 ribosomal frameshifting, lacZ reporter plasmids p−1/p0 in yeast; assay type: cell-based, Saccharomyces cerevisiae; details: various concentrations, four hours
[2] = tested on: programmed −1 ribosomal frameshifting; details: in cells and in in vitro translation extracts (ref. 19); cited from earlier work
M1 killer virus = details: cited from earlier work

| SMILES | effect on programmed −1 ribosomal frameshifting ([1]; mak8-1 strains) | effect on programmed −1 ribosomal frameshifting ([1]; wild-type cells) | effect on programmed −1 ribosomal frameshifting efficiencies [2] | loss of the yeast L-A and its satellite dsRNA virus M1 (M1 killer virus) |
| --- | --- | --- | --- | --- |
| COc1ccc(C[C@H]2NC[C@H](O)[C@H]2OC(C)=O)cc1 [anisomycin] | neither anisomycin nor sparsomycin had any further effect | altered ribosomal frameshifting | alter | promote loss |
| CSC[S@+]([O-])C[C@H](CO)NC(=O)/C=C/c1c(C)[nH]c(=O)[nH]c1=O [sparsomycin] | neither anisomycin nor sparsomycin had any further effect | altered ribosomal frameshifting | alter | promote loss |
